Measured values: patent US20090022803A1, “Oral Formulations For Delivery of Catecholic Butanes Including Ndga Compounds” (priority 2005, published 2009)
Read-outs that look alike come from different tables or passages of the source.

Assay type: physicochemical
Procedure: A 10 mL solution of M4N at a concentration of about 10 mg/mL in 40% BP-β-CD was made as follows. About 10 mL of the 40% HP-β-CD solution were added to a glass beaker containing a stir bar. The beaker was placed on a magnetic plate and the stir bar was set to stir at medium speed. About […] of M4N were slowly added to the 40% HP-β-CD in the center of the beaker with the aid of a spatula. The M4N/40% HP-β-CD mixture was stirred for 2 hr or until all M4N was uniformly suspended without any clumps being present. The M4N/40% HP-β-CD mixture was optionally heated at 80° C. for about 30 min. (or longer if a larger volume of solution was desired, for example, 1 hr at 80° C. for 100 mL of the M4N/HP-β-CD mixture), or longer as needed to ensure complete dissolution of M4N. […] The final M4N/40% HP-β-CD solution was stored at room temperature and was kept protected from light. This process may be scaled up or down to obtain the requisite volume or concentration of M4N. Formulations containing M4N in other cyclodextrin solutions may be similarly made, such as, for example, by substituting HP-β-CD in the process described above with other cyclodextrins. […]
A 10 mL solution of M4N at a concentration of about 10 mg/mL in 50% HP-β-CD/0.5% HPMC was made as follows. About 10 mL of the 50% HP-β-CD/0.5% HPMC solution were added to a glass beaker containing a stir bar. The beaker was placed on a magnetic plate and the stir bar was set to stir at medium speed. About 100 mg of M4N were slowly added to the 50% HP-β-CD/0.5% HPMC in the center of the beaker with the aid of a spatula. The M4N/50% HP-β-CD/0.5% HPMC mixture was stirred for 24 hr or until all M4N was uniformly suspended without any clumps being present. The M4N/50% HP-β-CD/0.5% HPMC mixture was heated at about 90° C. for about 30 min. (or longer if a larger volume of solution was desired, for example, 1 hr at 90° C. for 500 mL of the M4N/50% HP-β-CD/0.5% HPMC mixture), or longer as needed to ensure complete dissolution of M4N. […] The final M4N/50% HP-β-CD/0.5% HPMC solution was stored at room temperature and was kept protected from light.
A 10 mL solution of M4N at a concentration of about 20 mg/mL in 5% EC (w/v) (the “EC formulation”) was made as follows. About 10 mL of 5% EC formulation, made as described above, were added to a glass beaker containing a stir bar. The beaker was placed on a magnetic plate and the stir bar was set to stir at medium speed, and covered with a round Teflon® cover. About 200 mg of M4N were slowly added to the 5% EC formulation in the center of the beaker with the aid of a spatula to prevent M4N from sticking to the beaker wall. The M4N/EC mixture was stirred for 2 hr or until all M4N had dissolved or was uniformly suspended without any clumps being present. The M4N/EC mixture was heated at about 60° C. for about 30 min. (or longer if a larger volume of solution was desired, for example, 1 hr at 60° C. for 500 mL of the M4N/EC mixture), or longer as needed to ensure complete dissolution of M4N. […] The final M4N/EC solution was stored at room temperature and was kept protected from light.
A 10 mL solution of M4N at a concentration of about 50 mg/mL in sesame oil was made as follows. About 10 mL of sesame oil were added to a glass beaker containing a stir bar. The beaker was placed on a magnetic plate and the stir bar was set to stir at medium speed. About 500 mg of M4N were slowly added to the sesame oil in the center of the beaker with the aid of a spatula to prevent M4N from sticking to the beaker wall. The M4N/sesame oil mixture was stirred for about 2 hr or until all M4N had dissolved or was uniformly suspended without any clump being present. The M4N/sesame oil mixture was heated at about 60° C. for about 30 min. (or longer if a larger volume of solution was desired, for example, 1 hr at 60° C. for 500 mL of the M4N/sesame oil mixture), or longer as need to ensure complete dissolution of M4N. […]

[1] = M4N 10 mg/mL in 32% HP-β-CD, 20% PEG 400 (v/v)
[2] = M4N 10 mg/mL in 40% HP-β-CD, 1% PVP (w/v)
[3] = M4N 10 mg/mL in 40% HP-β-CD, 5% PEG 400 (v/v)
[4] = M4N 10 mg/mL in 50% HP-β-CD in saline
[5] = M4N 10 mg/mL in 50% HP-β-CD, 0.5% HPMC
[6] = M4N 10 mg/mL in 50% HP-β-CD, 1.25% PVP (w/v)
[7] = M4N 12.5 mg/mL in 12.5% HP-β-CD, 50% PEG 300 (v/v)
[8] = M4N 12.5 mg/mL in 12.5% HP-β-CD, 50% PEG 400 (v/v)
[9] = M4N 12.5 mg/mL in 15% HP-β-CD, 50% PEG 300 (v/v)
[10] = M4N 12.5 mg/mL in 15% HP-β-CD, 50% PEG 400 (v/v)
[11] = M4N 12.5 mg/mL in 20% HP-β-CD, 50% PEG 300 (v/v)
[12] = M4N 12.5 mg/mL in 20% HP-β-CD, 50% PEG 400 (v/v)
[13] = M4N 12.5 mg/mL in 30% HP-β-CD, 25% PEG 400 (v/v)
[14] = M4N 12.9 mg/mL in 23% HP-β-CD, 43% PEG 400 (v/v)
[15] = M4N 12.9 mg/mL in 23% HP-β-CD, 43 PEG 300 (v/v)
[16] = M4N 13.3 mg/mL in 27% HP-β-CD, 33% PEG 300 (v/v)
For Dissolution After Cool Down in this document: key: N represents 'No'; Y represents 'Yes.'.

COc1ccc(C[C@@H](C)[C@@H](C)Cc2ccc(OC)c(OC)c2)cc1OC [Formulation M4N, meso-1,4-bis(3,4-dimethoxyphenyl)-2,3-dimethylbutane]
Dissolution After Cool Down [1]: Y | Dissolution After Rotation [1]: N | Dissolution After Heating at X° C. (M4N 10 mg/mL in 32% HP-β-CD, 20% PEG 400 (v/v), 60°): Y at 60° | Dissolution After Cool Down (M4N 10 mg/mL in 40% HP-β-CD): Y | Dissolution After Rotation (M4N 10 mg/mL in 40% HP-β-CD): N | Dissolution After Heating at X° C. [2]: N | Dissolution After Rotation [2]: N | Dissolution After Rotation (M4N 10 mg/mL in 40% HP-β-CD, 2.5% PG (v/v)): N | Dissolution After Heating at X° C. (M4N 10 mg/mL in 40% HP-β-CD, 2.5% PG (v/v), 80°): N at 80° | Dissolution After Cool Down [3]: N | Dissolution After Rotation [3]: N | Dissolution After Heating at X° C. (M4N 10 mg/mL in 40% HP-β-CD, 5% PEG 400 (v/v), 60°): Y at 60° | Dissolution After Heating at X° C. (M4N 10 mg/mL in 40% HP-β-CD, 80°): Y at 80° | Dissolution After Cool Down (M4N 10 mg/mL in 50% HP-β-CD): Y | Dissolution After Rotation (M4N 10 mg/mL in 50% HP-β-CD): N | Dissolution After Cool Down [4]: Y | Dissolution After Rotation [4]: N | Dissolution After Heating at X° C. (M4N 10 mg/mL in 50% HP-β-CD in saline, 90°): Y at 90° | Dissolution After Cool-Down [5]: Y | Dissolution After Rotation [5]: N | Dissolution After Rotation (M4N 10 mg/mL in 50% HP-β-CD, 0.5% HPMC, other experiment, no heat): Suspension | Dissolution After Heating at X° C. [6]: N | Dissolution After Rotation [6]: N | Dissolution After Heating at X° C. (M4N 10 mg/mL in 50% HP-β-CD, 90°): Y at 90° | Dissolution After Cool-Down (M4N 10 mg/mL in Corn Oil): Y | Dissolution After Cool-Down (M4N 10 mg/mL in Mineral Oil): Y | Dissolution After Cool-Down (M4N 10 mg/mL in Soybean Oil): Y | Dissolution After Rotation (M4N 12 mg/mL in 40% HP-β-CD): N | Dissolution After Heating at X° C. (M4N 12 mg/mL in 40% HP-β-CD, 80°): N at 80° | Dissolution After Cool Down [7]: Y | Dissolution After Rotation [7]: N | Dissolution After Heating at X° C. (M4N 12.5 mg/mL in 12.5% HP-β-CD, 50% PEG 300 (v/v), 60°): Y at 60° | Dissolution After Cool Down [8]: Y | Dissolution After Rotation [8]: N | Dissolution After Heating at X° C. (M4N 12.5 mg/mL in 12.5% HP-β-CD, 50% PEG 400 (v/v), 60°): Y at 60° | Dissolution After Cool Down [9]: Y | Dissolution After Rotation [9]: N | Dissolution After Heating at X° C. (M4N 12.5 mg/mL in 15% HP-β-CD, 50% PEG 300 (v/v), 60°): Y at 60° | Dissolution After Cool Down [10]: Y | Dissolution After Rotation [10]: N | Dissolution After Heating at X° C. (M4N 12.5 mg/mL in 15% HP-β-CD, 50% PEG 400 (v/v), 60°): Y at 60° | Dissolution After Cool Down [11]: Y | Dissolution After Rotation [11]: N | Dissolution After Heating at X° C. (M4N 12.5 mg/mL in 20% HP-β-CD, 50% PEG 300 (v/v), 60°): Y at 60° | Dissolution After Cool Down [12]: Y | Dissolution After Rotation [12]: N | Dissolution After Heating at X° C. (M4N 12.5 mg/mL in 20% HP-β-CD, 50% PEG 400 (v/v), 60°): Y at 60° | Dissolution After Cool Down [13]: Y | Dissolution After Rotation [13]: N | Dissolution After Heating at X° C. (M4N 12.5 mg/mL in 30% HP-β-CD, 25% PEG 400 (v/v), 60°): Y at 60° | Dissolution After Cool Down [14]: Y | Dissolution After Rotation [14]: N | Dissolution After Heating at X° C. (M4N 12.9 mg/mL in 23% HP-β-CD, 43% PEG 400 (v/v), 60° C.): Y at 60 °C | Dissolution After Cool Down [15]: Y | Dissolution After Rotation [15]: N | Dissolution After Heating at X° C. (M4N 12.9 mg/mL in 23% HP-β-CD, 43 PEG 300 (v/v), 60°): Y at 60° | Dissolution After Cool Down [16]: Y | Dissolution After Rotation [16]: N | Dissolution After Heating at X° C. (M4N 13.3 mg/mL in 27% HP-β-CD, 33% PEG 300 (v/v), 60°): Y at 60°
